# In patent US9546158B2, “2,5-substituted pyrimidines” (Grünenthal GmbH, priority 2014, dated 2017):
# Target: T1, human PDE4B1 (Homo sapiens, UniProt Q07343)
# T1 construct: host or cells: Sf9 cells
# Assay: cAMP HTRF assay to determine the activity of hPDE4B1
# Assay type: biochemical
# Settings: test substrate concentration of 1 μM, read-out: Inhibition of PDE4B, Inhibition in %
# Procedure: cAMP HTRF® Assay to Determine the Activity of hPDE4B1
# The inhibiting effect of the compounds on the enzyme activity of human PDE4B1 was measured by the quantification of 5′-adenosine monophosphate (5′-AMP), which is formed from 3′,5′-cyclic adenosine monophosphate (cAMP). Human recombinant enzyme, expressed in Sf9 cells, and the HTRF (homogeneous time-resolved fluorescence) detection method were used in the assay.
# The test compound or water (control) was mixed with the human recombinant PDE4B1 enzyme (4.8 U) in a buffer consisting of 44.4 mM tris-HCl, 5.28 mM MgCl2, 2.64 mM DTT and 0.044% Tween 20 (pH 7.8). After adding the cAMP enzyme substrate (final concentration 40 nM), the mixture was incubated for 30 minutes at room temperature. Then a fluorescence acceptor (Dye2 marked with cAMP), a fluorescence donor (anti-cAMP antibody marked with a europium cryptate) and the non-specific phosphodiesterase inhibitor IBMX (3-isobutyl-1-methylxanthine; final concentration 1 mM) were added. After 60 minutes the fluorescence transfer, which correlates with the amount of remaining cAMP, was measured with a microplate reader (Rubystar, BMG) at λex=337 nm, λem=620 nm and λem=665 nm. The enzyme activity was calculated from the quotient formed from the measured signal at 665 nm and that at 620 nm. The result was expressed as the percentage inhibition of enzyme activity of the control (without PDE4 inhibitor). The enzyme was omitted for measurement of the basal control. IC50 values (IC50=concentration causing a half-maximal inhibition of control specific activity) were derived from dose response measurements with eight different concentrations (n=2; N=1-3).
# Literature: N. Saldou et al., Comparison of recombinant human PDE4 isoforms: interaction with substrate and inhibitors, Cell. Signal. Vol. 10, No. 6, 427-440, 1998
# T1 sequence (Q07343 whole entry): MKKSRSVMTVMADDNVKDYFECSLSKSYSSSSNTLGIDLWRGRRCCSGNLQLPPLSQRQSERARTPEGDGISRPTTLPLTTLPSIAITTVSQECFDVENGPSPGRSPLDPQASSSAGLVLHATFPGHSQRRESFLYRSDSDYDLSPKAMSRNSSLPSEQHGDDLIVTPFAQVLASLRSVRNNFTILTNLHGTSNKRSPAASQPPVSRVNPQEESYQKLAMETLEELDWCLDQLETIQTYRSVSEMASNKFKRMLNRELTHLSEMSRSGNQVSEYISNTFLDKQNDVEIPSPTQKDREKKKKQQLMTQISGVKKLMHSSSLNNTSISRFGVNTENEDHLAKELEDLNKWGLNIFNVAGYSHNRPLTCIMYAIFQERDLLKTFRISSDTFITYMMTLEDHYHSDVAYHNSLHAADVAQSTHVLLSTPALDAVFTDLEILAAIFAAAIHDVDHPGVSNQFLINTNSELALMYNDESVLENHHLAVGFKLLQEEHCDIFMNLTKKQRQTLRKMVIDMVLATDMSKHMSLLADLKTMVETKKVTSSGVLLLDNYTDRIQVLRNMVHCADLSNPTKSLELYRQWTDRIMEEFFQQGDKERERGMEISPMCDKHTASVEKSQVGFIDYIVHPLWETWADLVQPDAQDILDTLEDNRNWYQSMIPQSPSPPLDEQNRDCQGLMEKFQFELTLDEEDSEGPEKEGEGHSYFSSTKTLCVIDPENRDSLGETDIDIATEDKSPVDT
row,inhibition at 1 µM,SMILES
1,102%,"O=C(c1ccc2c(C(F)(F)F)nn(-c3ncc(-c4ccccc4F)cn3)c2c1)N1CCOCC1 [Compound No. 2, (1-(5-(2-Fluorophenyl)pyrimidin-2-yl)-3-(trifluoromethyl)-1H-indazol-6-yl)(morpholino)methanone]"
2,96%,"CS(=O)(=O)c1nn(-c2ncc(-c3ccccc3F)cn2)c2cc(C(=O)N3CCOCC3)ccc12 [Compound No. 5, (1-(5-(2-Fluorophenyl)pyrimidin-2-yl)-3-(methylsulfonyl)-1H-indazol-6-yl)(morpholino)methanone]"
3,86%,"CS(=O)(=O)c1nn(-c2ncc(-c3cc(C#N)ccc3F)cn2)c2cc(C(=O)N3CCOCC3)ccc12 [Compound No. 28, 4-Fluoro-3-(2-(3-(methylsulfonyl)-6-(morpholine-4-carbonyl)-1H-indazol-1-yl)pyrimidin-5-yl)benzonitrile]"
4,101%,"Cc1cccc(-c2cnc(-n3nc([S+](C)[O-])c4ccc(C(=O)N5CCOCC5)cc43)nc2)c1 (stereo not drawn) [Compound No. 23, (3-(Methylsulfinyl)-1-(5-(m-tolyl)pyrimidin-2-yl)-1H-indazol-6-yl)(morpholino)methanone]"
5,81%,"O=C(NC1CC1)c1cc2c(cn1)c(C1CC1)nn2-c1ncc(-c2ccccc2F)cn1 [compound 36, N,3-Dicyclopropyl-1-(5-(2-fluorophenyl)pyrimidin-2-yl)-1H-pyrazolo[4,3-c]pyridine-6-carboxamide]"
6,97%,"C[S+]([O-])c1nn(-c2ncc(-c3ccccc3F)cn2)c2cc(C(=O)N3CCOCC3)ccc12 (stereo not drawn) [Compound No. 6, (1-(5-(2-Fluorophenyl)pyrimidin-2-yl)-3-(methylsulfinyl)-1H-indazol-6-yl)(morpholino)methanone]"
7,67%,"CCN(CC)C(=O)c1cc2c(cn1)c(C1CC1)nn2-c1ncc(-c2ccccc2F)cn1 [compound 39, 3-Cyclopropyl-N,N-diethyl-1-(5-(2-fluorophenyl)pyrimidin-2-yl)-1H-pyrazolo[4,3-c]pyridine-6-carboxamide]"
8,99%,"Cc1nn(-c2ncc(-c3ccccc3F)cn2)c2cc(C(=O)N3CCOCC3)ccc12 [Compound No. 1, (1-(5-(2-Fluorophenyl)pyrimidin-2-yl)-3-methyl-1H-indazol-6-yl)(morpholino)methanone]"
9,44%,"COCCCNC(=O)c1cc2c(cn1)c(C1CC1)nn2-c1ncc(-c2ccccc2F)cn1 [compound 43, 3-Cyclopropyl-1-(5-(2-fluorophenyl)pyrimidin-2-yl)-N-(3-methoxypropyl)-1H-pyrazolo[4,3-c]pyridine-6-carboxamide]"
10,91%,"Cc1cccc(-c2cnc(-n3nc(S(C)(=O)=O)c4ccc(C(=O)N5CCOCC5)cc43)nc2)c1 [Compound No. 26, (3-(Methylsulfonyl)-1-(5-(m-tolyl)pyrimidin-2-yl)-1H-indazol-6-yl)(morpholino)methanone]"
11,85%,"C[S+]([O-])c1nn(-c2ncc(-c3cc(C#N)ccc3F)cn2)c2cc(C(=O)N3CCOCC3)ccc12 (stereo not drawn) [Compound No. 25, 4-Fluoro-3-(2-(3-(methylsulfinyl)-6-(morpholine-4-carbonyl)-1H-indazol-1-yl)pyrimidin-5-yl)benzonitrile]"
12,31%,"O=C(NCC1(O)CCC1)c1cc2c(cn1)c(C1CC1)nn2-c1ncc(-c2ccccc2F)cn1 [compound 46, 3-Cyclopropyl-1-(5-(2-fluorophenyl)pyrimidin-2-yl)-N-((1-hydroxycyclobutyl)methyl)-1H-pyrazolo[4,3-c]pyridine-6-carboxamide]"
13,96%,"Cc1cccc(-c2cnc(-n3nc(C(C)O)c4ccc(C(=O)N5CCOCC5)cc43)nc2)c1 (stereo not drawn) [Compound No. 18, (3-(1-Hydroxyethyl)-1-(5-(m-tolyl)pyrimidin-2-yl)-1H-indazol-6-yl)(morpholino)-methanone]"
14,46%,"C[S+]([O-])c1nn(-c2ncc(-c3ccccc3)cn2)c2cc(C(=O)N3CCNCC3)ccc12 (stereo not drawn) [Compound No. 9, (3-(Methylsulfinyl)-1-(5-phenylpyrimidin-2-yl)-1H-indazol-6-yl)(piperazin-1-yl)methanone]"
15,102%,"CC(O)c1nn(-c2ncc(-c3ccccc3F)cn2)c2cc(C(=O)N3CCOCC3)ccc12 (stereo not drawn) [Compound No. 20, (1-(5-(2-Fluorophenyl)pyrimidin-2-yl)-3-(1-hydroxyethyl)-1H-indazol-6-yl)(morpholino)methanone]"
16,40%,"CN(CCO)C(=O)c1cc2c(cn1)c(C1CC1)nn2-c1ncc(-c2ccccc2F)cn1 [compound 40, 3-Cyclopropyl-1-(5-(2-fluorophenyl)pyrimidin-2-yl)-N-(2-hydroxyethyl)-N-methyl-1H-pyrazolo[4,3-c]pyridine-6-carboxamide]"
17,115%,"C[S+]([O-])c1nn(-c2ncc(-c3ccccc3)cn2)c2cc(C(=O)N3CCOCC3)ccc12 (stereo not drawn) [Compound No. 11, (3-(Methylsulfinyl)-1-(5-phenylpyrimidin-2-yl)-1H-indazol-6-yl)(morpholino)methanone]"
18,100%,"COc1ccc(F)c(-c2cnc(-n3nc([S+](C)[O-])c4ccc(C(=O)N5CCOCC5)cc43)nc2)c1 (stereo not drawn) [Compound No. 24, (1-(5-(2-Fluoro-5-methoxyphenyl)pyrimidin-2-yl)-3-(methylsulfinyl)-1H-indazol-6-yl)(morpholino)methanone]"
19,64%,"C[S+]([O-])c1nn(-c2ncc(-c3ccccc3F)cn2)c2cc(C(=O)N3CCNCC3)ccc12 (stereo not drawn) [Compound No. 8, (1-(5-(2-Fluorophenyl)pyrimidin-2-yl)-3-(methylsulfinyl)-1H-indazol-6-yl)(piperazin-1-yl)methanone]"
20,27%,"O=C(NC1CCOCC1)c1cc2c(cn1)c(C1CC1)nn2-c1ncc(-c2ccccc2F)cn1 [compound 45, 3-Cyclopropyl-1-(5-(2-fluorophenyl)pyrimidin-2-yl)-N-(tetrahydro-2H-pyran-4-yl)-1H-pyrazolo[4,3-c]pyridine-6-carboxamide]"
21,39%,"O=C(c1cc2c(cn1)c(C1CC1)nn2-c1ncc(-c2ccccc2F)cn1)N1CCCCC1 [compound 42, (3-Cyclopropyl-1-(5-(2-fluorophenyl)pyrimidin-2-yl)-1H-pyrazolo[4,3-c]pyridin-6-yl)(piperidin-1-yl)methanone]"
22,108%,"C[S+]([O-])c1nn(-c2ncc(-c3ccccc3F)cn2)c2cc(C(=O)N3CC[C@@H](N)C3)ccc12 (stereo partly drawn) [Compound No. 13, ((R)-3-Aminopyrrolidin-1-yl)(1-(5-(2-fluorophenyl)pyrimidin-2-yl)-3-(methylsulfinyl)-1H-indazol-6-yl)methanone]"
23,62%,"CS(=O)(=O)c1nn(-c2ncc(-c3ccccc3)cn2)c2cc(C(=O)N3CCOCC3)ccc12 [Compound No. 12, (3-(Methylsulfonyl)-1-(5-phenylpyrimidin-2-yl)-1H-indazol-6-yl)(morpholino)methanone]"
24,85%,"COc1ccc(F)c(-c2cnc(-n3nc(S(C)(=O)=O)c4ccc(C(=O)N5CCOCC5)cc43)nc2)c1 [Compound No. 27, (1-(5-(2-Fluoro-5-methoxyphenyl)pyrimidin-2-yl)-3-(methylsulfonyl)-1H-indazol-6-yl)(morpholino)methanone]"
